This is an account of results in publication PMC9785230, “Glutamine Synthetase Contributes to the Regulation of Growth, Conidiation, Sclerotia Development, and Resistance to Oxidative Stress in the Fungus Aspergillus flavus” (Toxins, 2022).

The target of this experiment is T1, glutamine synthetase AflGsA (recombinant rAflGsA) (Aspergillus flavus, UniProt A0A7U2MSK3).
T1 construct: gene F9C07_2280198; 6× His-rAflGsA, AflgsA cDNA cloned into pET-28a, expressed in E. coli BL21 (DE3)
T1 sequence (A0A7U2MSK3 1-357): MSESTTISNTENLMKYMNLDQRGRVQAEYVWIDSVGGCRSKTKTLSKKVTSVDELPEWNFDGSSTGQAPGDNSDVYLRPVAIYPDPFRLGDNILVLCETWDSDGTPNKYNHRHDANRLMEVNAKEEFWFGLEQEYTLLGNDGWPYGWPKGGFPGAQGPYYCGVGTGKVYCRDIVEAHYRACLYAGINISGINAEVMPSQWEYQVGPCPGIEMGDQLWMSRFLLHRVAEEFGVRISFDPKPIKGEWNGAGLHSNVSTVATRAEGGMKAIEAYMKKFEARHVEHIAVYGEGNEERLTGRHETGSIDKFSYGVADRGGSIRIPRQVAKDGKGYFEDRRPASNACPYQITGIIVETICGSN
In words: glutamine synthetase activity assay at […] nm with purified recombinant enzyme, IC50 curve. The class given is biochemical.

In general, IC50 refers to the concentration that gives 50% inhibition. `N[C@@H](CCCC(=O)O)C(=O)O` [L-α-aminoadipic acid]: the IC50 turned out to be 288 µM.
